Columns and labels:
Cyperus iria = assay: Preemergence weed control under flooded paddy conditions, CYPIR (Rice Flatsedge); format: in vivo; conditions: flooded paddy, rated three to four weeks after treatment; for CYPIR herbicidal effect rating: preemergence; for herbicidal effect rating, CYPIR: preemergence weeds; as to herbicidal effect rating, CYPIR: meaning of each grade not given here
[1] = system: Monochoria vaginalis, Presl.; assay: Preemergence weed control under flooded paddy conditions, MOOVA (Monochoria); format: in vivo; conditions: flooded paddy, rated three to four weeks after treatment; for MOOVA herbicidal effect rating: preemergence; for herbicidal effect rating, MOOVA: preemergence weeds; as to herbicidal effect rating, MOOVA: meaning of each grade not given here
[2] = system: Cyperus serotinus, Rottb.; assay: Preemergence weed control under flooded paddy conditions, CYPSE (Flatsedge); format: in vivo; conditions: rated three to four weeks after treatment; for CYPSE herbicidal effect rating: preemergence; for herbicidal effect rating, CYPSE: preemergence weeds; as to herbicidal effect rating, CYPSE: meaning of each grade not given here
Sagittaria pygmaea, L. = assay: Preemergence weed control under flooded paddy conditions, SAGPY (Arrowhead (Pygmaea)); format: in vivo; conditions: flooded paddy, rated three to four weeks after treatment; for SAGPY herbicidal effect rating: preemergence; for herbicidal effect rating, SAGPY: preemergence weeds; as to herbicidal effect rating, SAGPY: meaning of each grade not given here
[3] = system: Oryza sativa, (L.) Tebonnet; assay: Rice tolerance to post-transplant applications under flooded paddy conditions (Example 187), ORYSAT (Rice, Tebonnet); conditions: rated three to four weeks after treatment
[4] = system: Echinochloa oryzoides (Ard.) Fritsch.; assay: Preemergence weed control under flooded paddy conditions, ECHORC (Watergrass (Calif.)); format: in vivo; conditions: flooded paddy, rated three to four weeks after treatment; for ECHORC herbicidal effect rating: preemergence; for herbicidal effect rating, ECHORC: preemergence weeds; as to herbicidal effect rating, ECHORC: meaning of each grade not given here

SMILES: COP(=O)(Cc1nsc2ccc(-n3c(=O)cc(C(F)(F)F)n(C)c3=O)cc12)OC [Example 262, 1,2-Benzisothiazole-3-methanephosphonic acid, 5-[3,6-dihydro-3-methyl-2,6-dioxo-4-(trifluoromethyl)-1(2H)-pyrimidinyl]-, dimethyl ester]
- CYPIR herbicidal effect rating (Cyperus iria; Rate 0.0620 kg/ha): 0.0
- CYPIR herbicidal effect rating (Cyperus iria; Rate 0.1250 kg/ha): 6.0
- CYPIR herbicidal effect rating (Cyperus iria; Rate 0.2500 kg/ha): 9.0
- MOOVA herbicidal effect rating ([1]; Rate 0.0620 kg/ha): 0.0
- MOOVA herbicidal effect rating ([1]; Rate 0.1250 kg/ha): 9.0
- MOOVA herbicidal effect rating ([1]; Rate 0.2500 kg/ha): 9.0
- CYPSE herbicidal effect rating ([2]; Rate 0.0620 kg/ha): 0.0
- CYPSE herbicidal effect rating ([2]; Rate 0.1250 kg/ha): 0.0
- CYPSE herbicidal effect rating ([2]; Rate 0.2500 kg/ha): 0.0
- SAGPY herbicidal effect rating (Sagittaria pygmaea, L.; Rate 0.0620 kg/ha): 0.0
- SAGPY herbicidal effect rating (Sagittaria pygmaea, L.; Rate 0.1250 kg/ha): 0.0
- SAGPY herbicidal effect rating (Sagittaria pygmaea, L.; Rate 0.2500 kg/ha): 0.0
- ORYSAT herbicidal effect rating ([3]; Rate 0.0620 kg/ha): 0.0
- ORYSAT herbicidal effect rating ([3]; Rate 0.1250 kg/ha): 0.0
- ORYSAT herbicidal effect rating ([3]; Rate 0.2500 kg/ha): 3.0
- ECHORC herbicidal effect rating ([4]; Rate 0.0620 kg/ha): 0.0
- ECHORC herbicidal effect rating ([4]; Rate 0.1250 kg/ha): 0.0
- ECHORC herbicidal effect rating ([4]; Rate 0.2500 kg/ha): 3.0

SMILES: C=CC(C)OCc1nsc2ccc(-n3c(=O)cc(C(F)(F)F)n(C)c3=O)cc12 (stereo not drawn) [Example 206, 1-Methyl-3-{3-[(1-methylallyloxy)methyl]-1,2-benzisothiazol-5-yl]-6-(trifluoromethyl)-2,4(1H,3H)-pyrimidinedione]
- herbicidal effect rating, CYPIR (Cyperus iria; 0.0313 kg/ha): 9.0
- herbicidal effect rating, CYPIR (Cyperus iria; 0.0625 kg/ha): 9.0
- herbicidal effect rating, CYPIR (Cyperus iria; 0.1250 kg/ha): 9.0
- herbicidal effect rating, CYPIR (Cyperus iria; 0.2500 kg/ha): 9.0
- herbicidal effect rating, MOOVA ([1]; 0.0313 kg/ha): 0.0
- herbicidal effect rating, MOOVA ([1]; 0.0625 kg/ha): 0.0
- herbicidal effect rating, MOOVA ([1]; 0.1250 kg/ha): 1.0
- herbicidal effect rating, MOOVA ([1]; 0.2500 kg/ha): 4.0
- herbicidal effect rating, CYPSE ([2]; 0.0313 kg/ha): 0.0
- herbicidal effect rating, CYPSE ([2]; 0.0625 kg/ha): 2.0
- herbicidal effect rating, CYPSE ([2]; 0.1250 kg/ha): 7.0
- herbicidal effect rating, CYPSE ([2]; 0.2500 kg/ha): 7.0
- herbicidal effect rating, SAGPY (Sagittaria pygmaea, L.; 0.0313 kg/ha): 0.0
- herbicidal effect rating, SAGPY (Sagittaria pygmaea, L.; 0.0625 kg/ha): 0.0
- herbicidal effect rating, SAGPY (Sagittaria pygmaea, L.; 0.1250 kg/ha): 1.0
- herbicidal effect rating, SAGPY (Sagittaria pygmaea, L.; 0.2500 kg/ha): 4.0
- herbicidal effect rating, ORYSAT (rice tolerance) ([3]; 0.0313 kg/ha): 5.0
- herbicidal effect rating, ORYSAT (rice tolerance) ([3]; 0.0625 kg/ha): 6.0
- herbicidal effect rating, ORYSAT (rice tolerance) ([3]; 0.1250 kg/ha): 7.0
- herbicidal effect rating, ORYSAT (rice tolerance) ([3]; 0.2500 kg/ha): 9.0
- herbicidal effect rating, ECHORC ([4]; 0.0313 kg/ha): 0.0
- herbicidal effect rating, ECHORC ([4]; 0.0625 kg/ha): 2.0
- herbicidal effect rating, ECHORC ([4]; 0.1250 kg/ha): 2.0
- herbicidal effect rating, ECHORC ([4]; 0.2500 kg/ha): 9.0

SMILES: Cn1c(C(F)(F)F)cc(=O)n(-c2ccc3snc(COC(CF)CF)c3c2)c1=O [Example 207, 3-{3-{[2-Fluoro-1-(fluoromethyl)ethoxy]methyl}-1,2-benzisothiazol-5-yl}-1-methyl-6-(trifluoromethyl)-2,4(1H,3H)-pyrimidinedione]
- herbicidal effect rating, CYPIR (Cyperus iria; 0.2500 kg/ha): 8.5
- CYPIR herbicidal effect rating (Cyperus iria; Rate 0.0313 kg/ha): 5.5
- CYPIR herbicidal effect rating (Cyperus iria; Rate 0.0625 kg/ha): 6.5
- CYPIR herbicidal effect rating (Cyperus iria; Rate 0.1250 kg/ha): 8.5
- herbicidal effect rating, MOOVA ([1]; 0.2500 kg/ha): 7.5
- MOOVA herbicidal effect rating ([1]; Rate 0.0313 kg/ha): 4.0
- MOOVA herbicidal effect rating ([1]; Rate 0.0625 kg/ha): 4.5
- MOOVA herbicidal effect rating ([1]; Rate 0.1250 kg/ha): 5.5
- herbicidal effect rating, CYPSE ([2]; 0.2500 kg/ha): 6.0
- CYPSE herbicidal effect rating ([2]; Rate 0.0313 kg/ha): 0.0
- CYPSE herbicidal effect rating ([2]; Rate 0.0625 kg/ha): 0.0
- CYPSE herbicidal effect rating ([2]; Rate 0.1250 kg/ha): 1.0
- herbicidal effect rating, SAGPY (Sagittaria pygmaea, L.; 0.2500 kg/ha): 1.0
- SAGPY herbicidal effect rating (Sagittaria pygmaea, L.; Rate 0.0313 kg/ha): 0.0
- SAGPY herbicidal effect rating (Sagittaria pygmaea, L.; Rate 0.0625 kg/ha): 0.0
- SAGPY herbicidal effect rating (Sagittaria pygmaea, L.; Rate 0.1250 kg/ha): 0.0
- herbicidal effect rating, ORYSAT (rice tolerance) ([3]; 0.2500 kg/ha): 7.5
- ORYSAT herbicidal effect rating ([3]; Rate 0.0313 kg/ha): 5.0
- ORYSAT herbicidal effect rating ([3]; Rate 0.0625 kg/ha): 6.0
- ORYSAT herbicidal effect rating ([3]; Rate 0.1250 kg/ha): 7.0
- herbicidal effect rating, ECHORC ([4]; 0.2500 kg/ha): 5.5
- ECHORC herbicidal effect rating ([4]; Rate 0.0313 kg/ha): 1.0
- ECHORC herbicidal effect rating ([4]; Rate 0.0625 kg/ha): 1.5
- ECHORC herbicidal effect rating ([4]; Rate 0.1250 kg/ha): 2.0

Reference: patent EP0908457B1, “3-(1,2-benzisothiazol- and isoxazol-5-Y1)-2,4(1H,3H)-pyrimidinedione or thione and 3-(1,2-benzisothiazol- and isoxazol-5-y1)-4(3H)-pyrimidinone or thione herbicidal agents” (BASF AKTIENGESELLSCHAFT, priority 1997, dated 1999)
